From PubChem BioAssay AID1224920 (Broad Institute, 2016) come the findings set out here.

The assay is described as follows: growth modulation of Clostridium difficile isolate – OD600, 9-point, retest, dose response (AID 1224920).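 Also: plate controls were DMSO for no effect and levofloxacin control for full effect; inhibitors lower culture turbidity so OD600 falls.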 Particulars: Clostridium difficile clinical isolate growth, OD600, 24 h.

Active and inactive are the calls of the source.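 The calls were made as follows: active = IC50 no higher than ten times the top tested dose; inconclusive = flat fit with 30 to 70% inhibition, or poor fit; inactive = IC50 above ten times the top dose.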

Consider `CCCNC(=O)N1CC[C@H]2[C@@H]1c1cc(C#Cc3ccccc3)ccc1N(C)[C@H]2CO`, for which, under “at 60 µM (top of the series)”, the activity change, negative = inhibition is 49.3% (inactive).

In the case of `CN(C)C(=O)C[C@H]1C=C[C@H](NC(=O)C2CCOCC2)[C@H](CO)O1`, the activity change, negative = inhibition (at 120 µM (top of the series)) is -14.4% (inactive).

Regarding `COc1ccc2c3c(n(C)c2c1)[C@@H](CO)N(C(=O)C1CC1)CC31CN(C(=O)Nc2cccc(F)c2)C1`, where the note is “at 120 µM (top of the series)”, the activity change, negative = inhibition is 18.8% (inactive).

Turning to `OC[C@H]1[C@H](c2ccc(-c3ccccc3)cc2)[C@@H]2CN(CCC(F)(F)F)CCCCN12`, for the setting “at 60 µM (top of the series)”, the activity change, negative = inhibition was 31.7% (inactive).

`COc1ccc2c3c(n(C)c2c1)[C@H](CO)N(C(=O)Cc1ccccc1)CC31CCN(C)CC1`: the activity change, negative = inhibition (at 120 µM (top of the series)) was 8.89% (inactive).

Consider `O=C(NC[C@H]1N[C@H](CO)[C@@H]1c1ccc(C2=CCCCC2)cc1)C1CCCC1`, for which the activity change, negative = inhibition (at 60 µM (top of the series)) is 38.1% (inactive).

In the case of `Cc1cccc(-c2ccc(C3[C@@H]4CN(C(=O)C5CCC5)C[C@H]3N4)cc2)c1` (stereo partly specified), the activity change, negative = inhibition (at 60 µM (top of the series)) is 39.3% (inactive).

For the compound `O=C(Nc1cccc(F)c1)N1CCCCN2[C@H](CO)[C@@H](c3ccc(-c4ccccc4F)cc3)[C@@H]2C1`, under “at 120 µM (top of the series)”, the activity change, negative = inhibition was 39.6% (inactive).

For the compound `Cc1ccc(S(=O)(=O)Nc2cccc3c2O[C@@H](CN(C)S(=O)(=O)c2ccccc2)[C@H](C)CN([C@H](C)CO)C3=O)cc1`, where the note is “at 120 µM (top of the series)”, the activity change, negative = inhibition was -24.7% (inactive).

As for `O=S(=O)(c1ccc(F)cc1)N1CCCCN2[C@@H](CO)[C@@H](c3ccc(-c4ccccc4)cc3)[C@@H]2C1`, the activity change, negative = inhibition (at 120 µM (top of the series)) was 0.278% (inactive).

As for `CN1c2ccc(-c3cccc(F)c3)cc2[C@@H]2[C@@H](CCN2C(=O)C2CCCC2)[C@@H]1CO`, the activity change, negative = inhibition (at 120 µM (top of the series)) is 34.7% (inactive).

In the case of `C/C=C/c1ccc([C@H]2[C@@H](CO)N(C(=O)CC)[C@@H]2CNC(=O)CC)cc1`, the activity change, negative = inhibition (at 135 µM (top of the series)) was -8.82% (inactive).

In the case of `O=C(c1ccc2c(c1)OCO2)N1C[C@@H]2N[C@H](C1)C2c1ccc(-c2ccccc2F)cc1` (stereo partly specified), the activity change, negative = inhibition (at 68 µM (top of the series)) is 31.1% (inactive).

Take `O=C(Nc1ccccc1F)N1C[C@@H]2N[C@H](C1)C2c1ccc(-c2ccccc2)cc1` (stereo partly specified): for the setting “at 120 µM (top of the series)”, the activity change, negative = inhibition was 36.7% (inactive).

For `CN1c2ccc(-c3cccc(F)c3)cc2[C@@H]2[C@@H](CCN2C(=O)Cc2ccccc2)[C@@H]1CO`, the activity change, negative = inhibition (at 135 µM (top of the series)) was 52.8% (inactive).

On to `O=C(C1CCCC1)N1C[C@@H]2N[C@H](C1)C2c1ccc(-c2ccccc2F)cc1` (stereo partly specified), for which the activity change, negative = inhibition (at 60 µM (top of the series)) was 51.8% (inactive).

Take `C/C=C/c1ccc([C@H]2[C@@H](CNC(=O)c3ccccn3)N(C(C)=O)[C@H]2CO)cc1`: where the note is “at 135 µM (top of the series)”, the activity change, negative = inhibition was -7.58% (inactive).

For `CC(=O)N(C)C[C@@H]1[C@@H](c2ccc(-c3ccccc3F)cc2)[C@@H](CO)N1C(C)=O`, under “at 135 µM (top of the series)”, the activity change, negative = inhibition is -15.6% (inactive).

In the case of `O=S(=O)(c1ccccc1)N1CCCCN2[C@H](CO)[C@H](c3ccc(C#Cc4ccccc4)cc3)[C@H]2C1`, the activity change, negative = inhibition (at 120 µM (top of the series)) is 27.6% (inactive).

As for `COc1ccc(-c2ccccc2[C@@H]2[C@@H](C#N)N(C(=O)NC3CCCCC3)[C@H]2CO)cc1`, the activity change, negative = inhibition (at 120 µM (top of the series)) was 9.48% (inactive).

For the compound `C[C@H](CO)N1C[C@H](C)[C@H](CN(C)Cc2ccc(Oc3ccccc3)cc2)Oc2ccc(NS(=O)(=O)c3ccccc3)cc2CC1=O`, the activity change, negative = inhibition (at 60 µM (top of the series)) was 33.6% (inactive).

Regarding `COc1ccc2c3c(n(C)c2c1)[C@H](CO)NCC31CN(Cc2ccc(F)cc2)C1`, the activity change, negative = inhibition (at 60 µM (top of the series)) was 7.43% (inactive).

In the case of `N#Cc1cccc(-c2ccc(C3[C@@H]4CN(S(=O)(=O)Cc5ccccc5)C[C@H]3N4)cc2)c1` (stereo partly specified), where the note is “at 60 µM (top of the series)”, the activity change, negative = inhibition is 29.4% (inactive).

For the compound `O=C(Nc1ccccc1F)N1C[C@@H]2N[C@H](C1)C2c1ccc(-c2cccc(F)c2)cc1` (stereo partly specified), the activity change, negative = inhibition (at 60 µM (top of the series)) is 33.4% (inactive).

As to `CC(=O)N1[C@H](CO)[C@@H](c2ccccc2)[C@H]1CN(C)C(=O)CN1CCOCC1`, under “at 135 µM (top of the series)”, the activity change, negative = inhibition was -1.86% (inactive).

Regarding `COc1ccc2c3c(n(C)c2c1)[C@@H](CO)N(C(=O)c1ccncc1)CC31CN(C)C1`, the activity change, negative = inhibition (at 120 µM (top of the series)) is 3.53% (inactive).

In the case of `CC(=O)NC[C@H]1[C@H](c2ccc(-c3cccc(F)c3)cc2)[C@@H](CO)N1C(C)=O`, for the setting “at 120 µM (top of the series)”, the activity change, negative = inhibition was -18.5% (inactive).

Take `Cc1ccccc1S(=O)(=O)N1CC[C@@H]2[C@@H](CO)Nc3ccc(-c4ccc(F)cc4)cc3[C@@H]21`: for the setting “at 120 µM (top of the series)”, the activity change, negative = inhibition was 46.1% (inactive).

With `CCCNC(=O)N1[C@H](C#N)[C@@H](c2ccccc2-c2ccc(C)cc2)[C@@H]1CO`, the activity change, negative = inhibition (at 120 µM (top of the series)) was 17% (inactive).

With `O=C(Nc1cccc(F)c1)N1CC(=O)N2[C@H](C1)[C@H](c1ccc(-c3cccc(F)c3)cc1)[C@@H]2CO`, the activity change, negative = inhibition (at 135 µM (top of the series)) is 37.9% (inactive).

Consider `CCc1nc(N2[C@H](C#N)[C@@H](c3ccccc3-c3ccccc3F)[C@@H]2CO)sc1C`, for which, for the setting “at 120 µM (top of the series)”, the activity change, negative = inhibition is 57.6% (inactive).

Turning to `C[C@H]1CN([C@@H](C)CO)C(=O)c2cccc(NC(=O)c3nc4ccccc4s3)c2O[C@H]1CN(C)S(=O)(=O)c1ccc(F)cc1`, for the setting “at 60 µM (top of the series)”, the activity change, negative = inhibition is 0.765% (inactive).

In the case of `CCC(=O)N1CC(=O)N2[C@H](CO)[C@@H](c3ccc(C#CC4CCCCC4)cc3)[C@@H]2C1`, the activity change, negative = inhibition (at 30 µM (top of the series)) is -9.02% (inactive).

As for `N#Cc1cccc(-c2ccc(C3[C@@H]4CN(Cc5cocn5)C[C@H]3N4)cc2)c1` (stereo partly specified), the activity change, negative = inhibition (at 120 µM (top of the series)) was 39.4% (inactive).

Turning to `COc1ccccc1-c1ccc2c(c1)[C@@H]1[C@@H](CCN1C(=O)C1CCOCC1)[C@@H](CO)N2`, for the setting “at 60 µM (top of the series)”, the activity change, negative = inhibition is 39.1% (inactive).

With `O=C(c1ccc(F)cc1)N1CC[C@@H]2[C@H]1c1cc(C3=CCCCC3)ccc1N[C@@H]2CO`, the activity change, negative = inhibition (at 60 µM (top of the series)) was 34.8% (inactive).

As for `Cc1ccccc1-c1ccc(C2[C@@H]3CN(C(=O)C4CCCC4)C[C@H]2N3)cc1` (stereo partly specified), the activity change, negative = inhibition (at 60 µM (top of the series)) is 34.2% (inactive).

In the case of `COc1ccc2c3c(n(C)c2c1)[C@H](CO)N(C)CC31CN(C(=O)NC(C)C)C1`, where the note is “at 120 µM (top of the series)”, the activity change, negative = inhibition is 0.365% (inactive).

In the case of `O=C(Nc1ccc(F)cc1)N1CCCCN2[C@H](CO)[C@@H](c3ccc(-c4ccccc4F)cc3)[C@@H]2C1`, the activity change, negative = inhibition (at 60 µM (top of the series)) was 53.6% (inactive).

As for `CC(=O)N1[C@H](CO)[C@@H](c2ccccc2)[C@@H]1CN(C)C(=O)CN1CCOCC1`, the activity change, negative = inhibition (at 120 µM (top of the series)) is -9.56% (inactive).

As to `COc1ccc2c3c(n(C)c2c1)[C@H](CO)N(C(=O)Nc1ccc(F)cc1)CC31CCN(C(=O)CN2CCOCC2)CC1`, the activity change, negative = inhibition (at 135 µM (top of the series)) is -1.31% (inactive).

As to `COc1ccc2c3c([nH]c2c1)[C@H](CO)N(C(=O)c1ccccc1)CC31CN(C(=O)Nc2cccc(F)c2)C1`, the activity change, negative = inhibition (at 120 µM (top of the series)) is 39% (inactive).

Take `O=S(=O)(c1cccc(F)c1)N1CC[C@@H]2[C@@H](CO)Nc3ccc(-c4cccc(F)c4)cc3[C@@H]21`: the activity change, negative = inhibition (at 120 µM (top of the series)) is 45.7% (inactive).

With `O=C(Nc1ccc(F)cc1)N1CCCCN2[C@H](C1)[C@@H](c1ccc(-c3cccc(F)c3)cc1)[C@@H]2CO`, under “at 120 µM (top of the series)”, the activity change, negative = inhibition was 43.3% (inactive).

As to `CN1[C@@H]2c3ccc(/C=C/c4ccccc4)c(=O)n3C[C@H]1[C@H](CO)[C@H]2C(=O)NC1CCCC1`, for the setting “at 120 µM (top of the series)”, the activity change, negative = inhibition is 4.99% (inactive).

`COc1cccc(-c2ccc(C3[C@@H]4CN(C(=O)C5CCCCC5)C[C@H]3N4)cc2)c1` (stereo partly specified): the activity change, negative = inhibition (at 60 µM (top of the series)) is 34.7% (inactive).

Turning to `CN(C)C(=O)C[C@@H]1CC[C@@H]2[C@@H](COc3ccc(NC(=O)C4CCC4)cc3C(=O)N2C)O1`, where the note is “at 120 µM (top of the series)”, the activity change, negative = inhibition was 0.255% (inactive).

As for `CC(=O)NC[C@H]1[C@@H](c2ccc(-c3cccc(F)c3)cc2)[C@@H](CO)N1C(C)=O`, the activity change, negative = inhibition (at 135 µM (top of the series)) was -7.05% (inactive).

`C/C=C/c1ccc([C@H]2[C@H](CO)N(C(=O)CC)[C@H]2CNC(=O)CC)cc1`: the activity change, negative = inhibition (at 135 µM (top of the series)) is -9.32% (inactive).

`CC(=O)NC[C@@H]1[C@H](c2ccc(-c3cccc(F)c3)cc2)[C@H](CO)N1C(C)=O`: the activity change, negative = inhibition (at 120 µM (top of the series)) was -6.3% (inactive).

`Cc1noc(C)c1NC(=O)N(C)C[C@H]1Oc2ccc(NC(=O)Nc3ccc4c(c3)OCO4)cc2CC(=O)N([C@H](C)CO)C[C@@H]1C`: for the setting “at 120 µM (top of the series)”, the activity change, negative = inhibition was -2.04% (inactive).

Turning to `CC(=O)N1[C@@H](CO)[C@@H](c2ccccc2)[C@@H]1CN(C)C(=O)CN1CCOCC1`, the activity change, negative = inhibition (at 120 µM (top of the series)) was -9.07% (inactive).

Regarding `C/C=C/c1ccc([C@H]2[C@@H](CO)N(C(=O)CC)[C@H]2CNC(=O)CC)cc1`, for the setting “at 135 µM (top of the series)”, the activity change, negative = inhibition was -4.24% (inactive).

Turning to `O=C(c1cccc(F)c1)N1CC[C@@H]2[C@@H](CO)Nc3ccc(C#Cc4ccc(F)cc4)cc3[C@@H]21`, the activity change, negative = inhibition (at 120 µM (top of the series)) was 38.1% (inactive).

Turning to `O=C(Nc1ccc(F)cc1)N1CCCCN2[C@H](CO)[C@@H](c3ccc(-c4cccc(F)c4)cc3)[C@@H]2C1`, under “at 120 µM (top of the series)”, the activity change, negative = inhibition was 48.5% (inactive).

For the compound `CN1c2ccc(Br)cc2[C@@H]2[C@@H](CCN2C(=O)Nc2ccc(F)cc2)[C@H]1CO`, where the note is “at 120 µM (top of the series)”, the activity change, negative = inhibition was 127% (inactive).

Turning to `CN(C)C(=O)c1cccc(-c2ccc(C3[C@H]4CNC[C@@H]3N4S(=O)(=O)c3ccc(Cl)cc3)cc2)c1` (stereo partly specified), the activity change, negative = inhibition (at 135 µM (top of the series)) is 10.5% (inactive).

As to `COc1ccc(-c2ccc3c(c2)[C@H]2[C@H](CCN2C(=O)Cc2cccnc2)[C@H](CO)N3C)cc1`, the activity change, negative = inhibition (at 120 µM (top of the series)) was 28.9% (inactive).

Regarding `CN1c2ccc(-c3ccc(F)cc3)cc2[C@H]2[C@H](CCN2C(=O)Nc2ccc(F)cc2)[C@H]1CO`, the activity change, negative = inhibition (at 120 µM (top of the series)) is 43.1% (inactive).

With `COc1cccc(-c2ccc3c(c2)[C@@H]2[C@@H](CCN2Cc2ccccc2OC)[C@@H](CO)N3)c1`, for the setting “at 30 µM (top of the series)”, the activity change, negative = inhibition was -7.43% (inactive).

As for `C[C@H]1CN([C@@H](C)CO)C(=O)c2cccc(NC(=O)Nc3ccc(C(F)(F)F)cc3)c2O[C@@H]1CN(C)C(=O)Nc1ccc(C(F)(F)F)cc1`, the activity change, negative = inhibition (at 135 µM (top of the series)) was 33.9% (inactive).
